pIC50: −log10 of the molar value. Entries after “also recorded” stand apart in the source; their conditions may differ.
How the values were obtained:
[1] = molecular target: T1, MCL-1/FITC-NOXA-B interaction (Homo sapiens, UniProt Q07820); assay: Fluorescence anisotropy competition, MCL-1/FITC-NOXA-B; assay type: biochemical; conditions: [MCL-1] 75 nM, tracer FITC-NOXA-B 25 nM, Tris buffer pH 7.4, triplicate; printed as ≫; read-out: IC50 against MCL-1
T1 construct: Recombinant MCL-1_172–327 was expressed and purified as published previously; made in house

[2] = molecular target: T2, MCL-1 (Homo sapiens, UniProt Q07820); assay: Photolabelling of recombinant MCL-1, ESI-MS
T2 construct: Recombinant MCL-1_172–327 was expressed and purified as published previously; made in house

[3] = molecular target: T3, BCL-XL (Homo sapiens, UniProt Q07817, DEL27-82); assay: Photolabelling of BCL-xL with Ac-RTA 4, ESI-MS; conditions: pH 7.4
T3 construct: made in house

[4] = molecular target: T2, MCL-1; assay: Pull-down of biotinylated MCL-1 with avidin-agarose beads; conditions: 20, 10 µM biotin-RTA 3, or 100 µM with excess label removed
Protocol: Pull-down of biotinylated MCL-1
The crude labelling mixture was incubated with avadin-agarose beads (50 µL) at r.t. for 2 hours with gentle agitation (input lanes 1-4 and their respective pull-down lanes 6-9). Note that for input lane 5/pull-down lane 10, excess biotin-RTA 3 was removed from the crude labelling mixture using a protein concentrator (10 kDa MWCO) prior to incubation with avidin-agarose beads. Following removal of the supernatant, the beads were washed twice with PBS (100 µL), then boiled at 90 °C for 10 mins in sample loading buffer to elute bound proteins. Samples were separated by SDS-PAGE: the gel (15% acrylamide) was run at a constant voltage of 180 V for 45 min, then the gel was stained with Coomassie Brilliant Blue (CBB) and the image obtained on a Molecular Imager ChemiDoc XRS.
Supplementary Figure 19: Isolation of biotinylated MCL-1 from crude labelling mixture through pull-down with avadin-agarose beads (CBB stained gel). Conditions: 5 µM MCL-1, 0-100 µM biotin-RTA 3, 1 µM Ru(II)(bpy)3-NOXA-B, 10 µM APS, 1 min irradiation, 50 mM […]
3 was used (lanes 7 and 8, respectively), in addition to when 100 µM biotin-RTA 3 was used and the excess label 3 was removed using a protein concentrator (lane 10). 50 µL avidin-agarose beads was used in pull-down experiments.

[5] = molecular target: T2, MCL-1; assay: Competition of Ru(II)(bpy)3-NOXA-B 1-mediated MCL-1 photolabelling, in-gel fluorescence; assay type: biochemical; conditions: 0-100 µM competitor; 5 µM MCL-1, 5 µM TAMRA-RTA 2, 1 µM 1, 10 µM APS, 1 min hν

T2 sequence (Q07820 172-327): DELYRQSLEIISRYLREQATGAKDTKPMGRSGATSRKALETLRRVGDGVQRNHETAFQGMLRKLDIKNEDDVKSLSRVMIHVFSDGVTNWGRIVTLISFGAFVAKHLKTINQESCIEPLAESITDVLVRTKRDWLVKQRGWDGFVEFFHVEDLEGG
T3 sequence (Q07817 with tags, fused parts or gaps DEL27-82, species assumed): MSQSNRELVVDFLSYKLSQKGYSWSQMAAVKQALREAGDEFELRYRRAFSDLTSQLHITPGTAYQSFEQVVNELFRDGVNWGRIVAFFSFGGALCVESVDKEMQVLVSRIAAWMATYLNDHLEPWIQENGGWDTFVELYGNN
T1 sequence (Q07820 172-327): as the sequence (Q07820 172-327) above

Q: With “6b: variant Ac-BID sequence with key hot-spot residues exchanged (L90A and D95R) (EDIIRNIARHAAQVGRSXDRSIW; N-terminal acetyl; C-terminal amide; X18 = norleucine (Nle))” as the molecule, how does the pIC50 [1] read?
A: Its pIC50 is < 4.30.

Q: What does the source list for `[Ru+2].c1ccc(-c2ccccn2)nc1.c1ccc(-c2ccccn2)nc1.c1ccc(-c2ccccn2)nc1` [Ru(II)(bpy)3]?
A: photolabelling efficiency of MCL-1 versus targeted catalyst 1 ([2]; 20 mol% Ru(II)(bpy)3, 50 μM Ac-RTA 4, 10 μM APS, 1 min irradiation, pH 7.4): labelling was less efficient; effect of photocatalyst concentration on BCL-xL labelling [3]: increased at higher concentrations of Ru(II)(bpy)3; labelling of BCL-xL with Ac-RTA 4 [3]: small amounts of BCL-xL could be labelled

Q: Which results are given for `CN(C)c1ccc(NC(=O)CCCCCNC(=O)CCCCC2SCC3NC(=O)NC32)cc1` (stereo not drawn) [compound 3]?
A: affinity purification of biotinylated MCL-1 [4]: Biotinylated MCL-1 was pulled-down; also recorded: could be affinity-purified with avidin-agarose beads; background labelling with biotin-RTA 3 in the absence of 1 ([2]; 0 µM 1, 5 μM MCL-1, 5 µM biotin-RTA 3, 10 µM APS, 1 min hν): absence of background labelling; number of labels incorporated on MCL-1 ([2]; Ru(II)(bpy)3-NOXA-B 1-mediated, intact protein ESI-MS): single biotin labelling of MCL-1; oxidation at irradiation times greater than 1 min ([2]; biotin-RTA 3 5 µM, 1 µM 1, 10 µM APS, 15 mins irradiation shown): higher conversion to oxidised protein species

Q: Which “inhibition of MCL-1 labelling by Ac-NOXA-B” value [5] does the source give for `CC[C@H](C)[C@H](NC(=O)[C@H](CCCNC(=N)N)NC(=O)[C@H](CCCNC(=N)N)NC(=O)[C@H](CC(C)C)NC(=O)[C@H](CCC(N)=O)NC(=O)[C@H](C)NC(=O)[C@H](C)NC(C)=O)C(=O)NCC(=O)N[C@@H](CC(=O)O)C(=O)N[C@@H](CCCCN)C(=O)N[C@H](C(=O)N[C@@H](CC(N)=O)C(=O)N[C@@H](CC(C)C)C(=O)N[C@@H](CCCNC(=N)N)C(=O)N[C@@H](CCC(N)=O)C(=O)N[C@@H](CCCCN)C(=O)N[C@@H](CC(C)C)C(=O)N[C@@H](CC(C)C)C(=O)N[C@@H](CC(N)=O)C(N)=O)C(C)C` [compound 5] here?
A: Its value is “did not completely abrogate labelling”.
